Experiments:
Assay type in all cases: in vivo
[1] = system: barnyardgrass (Echinochloa crus-galli); test: Test A pre-/postemergence: barnyardgrass
In short: (§1)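 Compounds, formulated with surfactant in non-phytotoxic solvent, were applied as a directed soil spray preemergence and as postemergence sprays to 2–10 cm, one- to two-leaf seedlings grown in loam soil blended with sand; visual injury, 0–100, assessed ~10 days post-treatment against untreated controls.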

[2] = system: crabgrass, large (large crabgrass, Digitaria sanguinalis); test: Test A pre-/postemergence: crabgrass, large
In short: as §1

[3] = system: foxtail, giant (giant foxtail, Setaria faberii); test: Test A pre-/postemergence: foxtail, giant
In short: as §1

[4] = system: morningglory (Ipomoea spp.); test: Test A pre-/postemergence: morningglory
In short: as §1

[5] = system: pigweed (Amaranthus retroflexus); test: Test A pre-/postemergence: pigweed
In short: as §1

[6] = system: velvetleaf (Abutilon theophrasti); test: Test A pre-/postemergence: velvetleaf
In short: as §1

[7] = system: wheat (Triticum aestivum); test: Test A pre-/postemergence: wheat
In short: as §1

corn (Zea mays) = test: Test A pre-/postemergence: corn
In short: as §1

rice (Oryza sativa) = test: Test B flooded paddy: rice; conditions: Flood, applied to paddy water at 2-leaf stage, visually evaluated after 13 to 15 days
Description: (§2) Seeds selected from rice (Oryza sativa), sedge, umbrella (small-flower umbrella sedge Cyperus difformis), ducksalad (Heteranthera limosa), and barnyardgrass (Echinochloa crus-galli) were grown to the 2-leaf stage for testing. At time of treatment, test pots were flooded to 3 cm above the soil surface, treated by application of test compounds directly to the paddy water, and then maintained at that water depth for the duration of the test.
(§3) Treated plants and controls were maintained in a greenhouse for 13 to 15 days, after which time all species were compared to controls and visually evaluated. Plant response ratings, summarized in Table B, are based on a scale of 0 to 100 where 0 is no effect and 100 is complete control. A dash (-) response means no test result.

[8] = system: sedge, umbrella (small-flower umbrella sedge Cyperus difformis); test: Test B flooded paddy: sedge, umbrella; conditions: Flood, applied to paddy water at 2-leaf stage, visually evaluated after 13 to 15 days
Description: as §2, §3

[9] = system: ducksalad (Heteranthera limosa); test: Test B flooded paddy: ducksalad; conditions: Flood, applied to paddy water at 2-leaf stage, visually evaluated after 13 to 15 days
Description: as §2, §3

[10] = system: barnyardgrass (Echinochloa crus-galli); test: Test B flooded paddy: barnyardgrass; conditions: Flood, applied to paddy water at 2-leaf stage, visually evaluated after 13 to 15 days
Description: as §2, §3

[11] = Postemergence, 125 g ai/ha, 0 to 100 scale, 0 is no effect, 100 is complete control
[12] = Postemergence, 500 g ai/ha, visual rating on 0 to 100 scale (0 no effect, 100 complete control), approximately ten days
[13] = Preemergence, 125 g ai/ha, 0 to 100 scale where 0 is no effect and 100 is complete control
[14] = Preemergence, 500 g ai/ha, 0 to 100 scale (0 no effect, 100 complete control)
[15] = Postemergence, 500 g ai/ha, 0 to 100 scale, 0 is no effect, 100 is complete control
[16] = Preemergence, 125 g ai/ha, 0 to 100 scale (0 no effect, 100 complete control)
[17] = Preemergence, 500 g ai/ha, 0 to 100 scale, 0 is no effect, 100 is complete control

CCCc1nn(-c2ccc(F)cc2)nc1Cc1cccc(C(F)(F)F)c1 [Compound 149]
100: Plant response rating, Crabgrass, Large [2, 14] | Plant response rating, Foxtail, Giant [3, 14] | Morningglory plant response rating [4, 12] | Plant response rating, Pigweed [5, 11] | Pigweed plant response rating [5, 12] | Plant response rating, Pigweed [5, 14] | Velvetleaf plant response rating [6, 12]
30: Plant response rating, Barnyardgrass [1, 11] | Plant response rating, Morningglory [4, 14] | Wheat plant response rating [7, 12] | Plant response rating, Corn (corn (Zea mays); [11]) | Plant response rating, Rice (0 to 100 scale, 0 is no effect, 100 is complete control) (rice (Oryza sativa); 250 g ai/ha)
50: Plant response rating, Velvetleaf [6, 14] | Plant response rating, Wheat [7, 14]
80: Barnyardgrass plant response rating [1, 12] | Plant response rating, Crabgrass, Large [2, 11] | Plant response rating, Foxtail, Giant [3, 11]
40: Corn plant response rating (corn (Zea mays); [12]) | Plant response rating, Barnyardgrass (0 to 100 scale, 0 is no effect, 100 is complete control) ([10]; 250 g ai/ha)
60: Plant response rating, Barnyardgrass [1, 13] | Plant response rating, Velvetleaf [6, 11] | Plant response rating, Sedge, Umbrella (0 to 100 scale, 0 is no effect, 100 is complete control) ([8]; 250 g ai/ha) | Plant response rating, Ducksalad (0 to 100 scale, 0 is no effect, 100 is complete control) ([9]; 250 g ai/ha)
0: Plant response rating, Wheat [7, 13]
20: Plant response rating, Velvetleaf [6, 13] | Plant response rating, Wheat [7, 11] | Plant response rating, Corn (corn (Zea mays); [14])
90: Plant response rating, Barnyardgrass [1, 14] | Crabgrass, Large plant response rating [2, 12] | Plant response rating, Crabgrass, Large [2, 13] | Foxtail, Giant plant response rating [3, 12] | Plant response rating, Foxtail, Giant [3, 13] | Plant response rating, Morningglory [4, 11] | Plant response rating, Pigweed [5, 13]
10: Plant response rating, Morningglory [4, 13] | Plant response rating, Corn (corn (Zea mays); [13])

CC(C)Cc1nn(-c2ccc(C(F)(F)F)cc2)nc1Oc1ccnc(C(F)(F)F)c1 [Compound 186]
0: Plant response rating, Barnyardgrass [1, 11] | Barnyardgrass plant response rating [1, 15] | Plant response rating, Barnyardgrass [1, 13] | Plant response rating, Barnyardgrass [1, 14] | Plant response rating, Crabgrass, Large [2, 11] | Crabgrass, Large plant response rating [2, 15] | Plant response rating, Crabgrass, Large [2, 13] | Plant response rating, Crabgrass, Large [2, 14] | Plant response rating, Foxtail, Giant [3, 11] | Foxtail, Giant plant response rating [3, 15] | Plant response rating, Foxtail, Giant [3, 13] | Plant response rating, Foxtail, Giant [3, 14] | Plant response rating, Morningglory [4, 11] | Plant response rating, Morningglory [4, 13] | Plant response rating, Morningglory [4, 14] | Plant response rating, Pigweed [5, 13] | Plant response rating, Pigweed [5, 14] | Plant response rating, Velvetleaf [6, 11] | Plant response rating, Velvetleaf [6, 13] | Plant response rating, Velvetleaf [6, 14] | Plant response rating, Wheat [7, 11] | Wheat plant response rating [7, 15] | Plant response rating, Wheat [7, 13] | Plant response rating, Wheat [7, 14] | Plant response rating, Corn (corn (Zea mays); [13]) | Plant response rating, Corn (corn (Zea mays); [14]) | Plant response rating, Rice (0 to 100 scale, 0 is no effect, 100 is complete control) (rice (Oryza sativa); 125 g ai/ha) | Plant response rating, Sedge, Umbrella (0 to 100 scale, 0 is no effect, 100 is complete control) ([8]; 125 g ai/ha) | Plant response rating, Ducksalad (0 to 100 scale, 0 is no effect, 100 is complete control) ([9]; 125 g ai/ha) | Plant response rating, Barnyardgrass (0 to 100 scale, 0 is no effect, 100 is complete control) ([10]; 125 g ai/ha)
10: Morningglory plant response rating [4, 15] | Plant response rating, Corn (corn (Zea mays); [11])
20: Plant response rating, Pigweed [5, 11] | Velvetleaf plant response rating [6, 15] | Corn plant response rating (corn (Zea mays); [15])
60: Pigweed plant response rating [5, 15]

Cc1nn(-c2ccccc2Cl)nc1C(=O)c1cccc(C(F)(F)F)c1 [Compound 5]
10: Pigweed plant response rating [5, 11]
0: Barnyardgrass plant response rating [1, 11] | Barnyardgrass plant response rating [1, 12] | Plant response rating, Barnyardgrass [1, 16] | Plant response rating, Barnyardgrass [1, 17] | Crabgrass, Large plant response rating [2, 11] | Crabgrass, Large plant response rating [2, 12] | Plant response rating, Crabgrass, Large [2, 16] | Plant response rating, Crabgrass, Large [2, 17] | Foxtail, Giant plant response rating [3, 11] | Foxtail, Giant plant response rating [3, 12] | Plant response rating, Foxtail, Giant [3, 16] | Plant response rating, Foxtail, Giant [3, 17] | Morningglory plant response rating [4, 11] | Morningglory plant response rating [4, 12] | Plant response rating, Morningglory [4, 16] | Plant response rating, Morningglory [4, 17] | Plant response rating, Pigweed [5, 16] | Plant response rating, Pigweed [5, 17] | Velvetleaf plant response rating [6, 11] | Velvetleaf plant response rating [6, 12] | Plant response rating, Velvetleaf [6, 16] | Plant response rating, Velvetleaf [6, 17] | Wheat plant response rating [7, 11] | Wheat plant response rating [7, 12] | Plant response rating, Wheat [7, 16] | Plant response rating, Wheat [7, 17] | Corn plant response rating (corn (Zea mays); [11]) | Corn plant response rating (corn (Zea mays); [12]) | Plant response rating, Corn (corn (Zea mays); [16]) | Plant response rating, Corn (corn (Zea mays); [17]) | Plant response rating, Rice (0 to 100 scale, 0 is no effect, 100 is complete control) (rice (Oryza sativa); 250 g ai/ha) | Plant response rating, Sedge, Umbrella (0 to 100 scale, 0 is no effect, 100 is complete control) ([8]; 250 g ai/ha) | Plant response rating, Ducksalad (0 to 100 scale, 0 is no effect, 100 is complete control) ([9]; 250 g ai/ha) | Plant response rating, Barnyardgrass (0 to 100 scale, 0 is no effect, 100 is complete control) ([10]; 250 g ai/ha)
30: Pigweed plant response rating [5, 12]

CC(C)(C)c1nn(-c2ccc(F)cc2)nc1C(=O)c1ccnc(C(F)(F)F)c1 [Compound 175]
0: Plant response rating, Barnyardgrass [1, 11] | Barnyardgrass plant response rating [1, 15] | Plant response rating, Barnyardgrass [1, 13] | Plant response rating, Barnyardgrass [1, 14] | Plant response rating, Crabgrass, Large [2, 11] | Crabgrass, Large plant response rating [2, 15] | Plant response rating, Crabgrass, Large [2, 13] | Plant response rating, Crabgrass, Large [2, 14] | Plant response rating, Foxtail, Giant [3, 11] | Foxtail, Giant plant response rating [3, 15] | Plant response rating, Foxtail, Giant [3, 13] | Plant response rating, Foxtail, Giant [3, 14] | Plant response rating, Morningglory [4, 11] | Morningglory plant response rating [4, 15] | Plant response rating, Morningglory [4, 13] | Plant response rating, Morningglory [4, 14] | Plant response rating, Pigweed [5, 11] | Pigweed plant response rating [5, 15] | Plant response rating, Pigweed [5, 13] | Plant response rating, Pigweed [5, 14] | Plant response rating, Velvetleaf [6, 11] | Velvetleaf plant response rating [6, 15] | Plant response rating, Velvetleaf [6, 13] | Plant response rating, Velvetleaf [6, 14] | Plant response rating, Wheat [7, 11] | Wheat plant response rating [7, 15] | Plant response rating, Wheat [7, 13] | Plant response rating, Wheat [7, 14] | Plant response rating, Corn (corn (Zea mays); [11]) | Corn plant response rating (corn (Zea mays); [15]) | Plant response rating, Corn (corn (Zea mays); [13]) | Plant response rating, Corn (corn (Zea mays); [14]) | Plant response rating, Rice (0 to 100 scale, 0 is no effect, 100 is complete control) (rice (Oryza sativa); 125 g ai/ha) | Plant response rating, Sedge, Umbrella (0 to 100 scale, 0 is no effect, 100 is complete control) ([8]; 125 g ai/ha) | Plant response rating, Ducksalad (0 to 100 scale, 0 is no effect, 100 is complete control) ([9]; 125 g ai/ha) | Plant response rating, Barnyardgrass (0 to 100 scale, 0 is no effect, 100 is complete control) ([10]; 125 g ai/ha)

Reference: patent US9302999B2, “Substituted triazoles as herbicides” (E. I. DU PONT DE NEMOURS AND COMPANY, priority 2012, dated 2016)
